Assay results published in a melting point compilation (Tetko et al.; mined from patent text by program, amines drawn as free bases though some values may be those of a salt).

SMILES	melting point [°C]
Cc1cnc(OCC2CN(C(C)(C)C)C(c3ccccc3)O2)c2cc(Cl)ccc12 (stereo not drawn)	90 to 92
COc1cc(-n2nc(C)[nH]c2=O)ccc1C	164 to 168
CN1CCN(CCCCC(=O)N2c3ccccc3C(=O)Nc3cccnc32)CC1	151 to 153
COc1ccc(-c2cc(SC(F)(F)F)[nH]c2-c2ccc(OC)cc2)cc1	114 to 115
COc1cc2ncnc(N3CCC(C4(C)CO4)CC3)c2cc1OC (stereo not drawn)	125 to 128
CCOc1ccn(C2OC(CO)C(O)C2O)c(=O)n1 (stereo not drawn)	110 to 114
CC(C)C[C@@H](O)CC(=O)O	86
CN(CC=C(F)C(F)(F)C(F)(F)F)CCCCCC1Cc2cc(O)ccc2C2C(F)CC3(C)C(O)CCC3C12 (stereo not drawn)	122
O=C(O)Cn1nc(-c2ccccc2O)nc1-c1ccccc1O	231 to 233
CC(=O)SCCC(=O)N1CC[C@H](SC(C)=O)[C@H]1C(=O)O	145 to 148
CCCCc1nc2c(N)nc3cccnc3c2n1CCNC(=O)OC(C)(C)C	118 to 120
CC(=O)c1cccc(-c2nc3sccn3c2-c2ccnc(N[C@@H]3CCCN(S(=O)(=O)c4ccc(Cl)cc4)C3)n2)c1	124 to 127
COC(=O)c1sccc1Nc1ccnc2c(Cl)cccc12	226
C=CCN(c1ccccc1)c1cc2c(cc1N(CC=C)c1ccccc1)C(=O)NC2=O	122 to 127
CC(C)(C)OC(=O)N1[C@H](C=CCCCO)COC1(C)C	73 to 75
C=CC(=O)NC1CCCCC1	109 to 110
Oc1cc(Cl)cc(Br)c1	66 to 68
COc1ccc(C2CNC(=O)C2)cc1OS(=O)(=O)C(F)(F)F (stereo not drawn)	99 to 101
CC(=O)C(=CC(=O)O)c1ccccc1	70
Cc1cc(OC(=S)N(C)C)c(C(C)(C)C)cc1C=O	79.5 to 81
CCOC(=O)/C(=N\OC12CCC(CC1)CC2)c1csc(N)n1	139 to 140
CCn1ncnc1COc1nn2c(-c3ccc(F)cc3)nncc2c1C(C)(C)C	190
CCCN(CCC)C1Cc2cccc3ccc(=O)n(c23)C1 (stereo not drawn)	82 to 84
Sc1nnc(-c2cc3c(Oc4ccc(Cl)cc4)cncc3s2)o1	236 to 240
CCOC(=O)n1nc(-c2cc(C(C)(C)C)c(O)c(C(C)(C)C)c2)c2ccc(C)nc21	208 to 209
CN(C)c1cc(CC(C#N)=CNc2ccccc2)cc(N(C)C)c1Cl	168
C#Cc1cc(C(=O)OC)ccc1S(C)(=O)=O	95 to 98

SMILES	melting point [°C]
O=C(O)C[C@@]1(C[N+](=O)[O-])C[C@H]2CCC[C@H]21	64 to 66
NC(=O)c1ccc(OC2CCN(Cc3ccccc3)CC2)cc1	166 to 168
Cc1ccc(C(=O)Nc2ccc3[nH]cc(C4CCN(C)CC4)c3n2)s1	123 to 127
COc1ccc2c(c1)c(=O)oc(=O)n2-c1ccc(OCc2ccccc2)cc1	155
CCN(C(=O)NC)c1nnc(C(C)(C)C)s1	112
CC(C)CN1C(=O)COc2cc(F)c(N)cc21	176 to 178
CC(C)(C)c1cn2cccc(C=O)c2n1	60 to 62
CN=C(NS(=O)(=O)N1CCC(F)(F)CC1)N1CC(c2ccccc2)C(c2ccc(Cl)cc2)=N1 (stereo not drawn)	158 to 160
O=C(O)c1cccc(-c2nc3cc(N4CCCC4=O)ccc3o2)c1	190 to 192
COc1cc(C)c(S(=O)(=O)c2ccccc2)cc1OC	162 to 163
Cc1nc2cccc(OCC(C)(C)C(=O)NCC3CCC3)c2c(N)c1C(=O)O	170 to 172
O=C(O)C(=O)c1ccc(OCCOC2CCCCCCC2)cc1	64 to 65
Nc1cc(Cl)ccc1-c1noc(=O)[nH]1	159 to 161
CCNc1nc(C)c(-c2ccnc(Nc3ccc(N4CCOCC4)c(OC)c3)n2)s1	224 to 226
C[C@H]1c2cc(F)ccc2-c2ccccc2N1S(=O)(=O)c1ccc(OS(N)(=O)=O)cc1	166 to 167
O=C(O)CCCOC(c1ccccc1)(c1ccccc1)c1ccccc1	137 to 140
O=C(NCCCN1CCN(c2ccc(F)cc2OCC(F)(F)F)CC1)c1csc2c(=O)cc(-c3ccccc3)oc12	189 to 191
O=C(Nc1ccc(-n2nc(C(F)(F)F)cc2C(F)(F)F)cc1)c1ccc(F)c(Cl)c1	138 to 139
N#CSc1ccc(N)c(C(=O)c2ccccn2)c1	102 to 104
CC(=O)NC(=Cc1ccc(OC(C)=O)cc1)C(=O)O	236 to 237
Fc1ccc(COc2ncc(F)c(NCc3ccccc3F)n2)cc1	83 to 84
Cc1cc(Cl)cc(C(=O)NCC2CC2)c1NC(=O)c1cc(Br)nn1-c1ncccc1Cl	166 to 168
C[C@]1(COc2ccc3nc(N4CCN(Cc5ccc(OC(F)(F)F)cc5)CC4)sc3c2)Cn2cc([N+](=O)[O-])nc2O1	206 to 207
CCCCNc1c(C#N)cnc2cc(F)c(OC)cc12	155 to 156
CC(NC(=O)c1ccc(C2(C)C(=O)Nc3cc(Cl)cc(Cl)c3C2=O)cc1)c1ccccc1 (stereo not drawn)	110 to 115
FC(F)(F)c1ccc(-c2cc(C(F)(F)F)c3ncc(I)n3n2)cc1	123 to 125
